The values below come from patent US10294247B2, “Beta-lactamase inhibitors” (VenatoRx Pharmaceuticals, Inc., priority 2014, dated 2019).

What all share (format): cell-based
Experiment [1] deals with E. coli expressing the Class A Extended Spectrum Beta-Lactamase (ESBL) CTX-M-15. As to the kind of experiment: broth microdilution MIC assay, E. coli CTX-M-15. As to conditions: Escherichia coli, read-out: MIC alone. From the text:
(§1) To determine the ability of test compounds to potentiate the inhibition of the growth of bacterial strains that produce beta-lactamase enzymes, classic cell based broth microdilution MIC assays are employed. Six bacteria strains producing beta-lactamase enzymes are used: E. coli expressing the Class A Extended Spectrum Beta-Lactamase (ESBL) CTX-M-15, E. cloacae expressing the Class C P99, K. pneumoniae expressing the Class A carbapenemase KPC-3, P. aeruginosa expressing the Class B carbapenemase VIM-2, K. pneumoniae expressing the class A carbapenemase KPC-2 and the class B carbapenemase VIM-4, and S. aureus producing the Class A penicillinase PC-1. The assay is conducted in Cation Adjusted Mueller Hinton Broth (CAMHB, BD #212322, BD Diagnostic Systems, Sparks, Md.). Bacteria strains are grown for 3-5 hours in CAMBH broth. Test compounds are added to a microtiter plate in 2-fold serial dilutions in CAMHB in a final concentration range of 32 μg/mL to 0.25 μg/ml. An overlay of CAMHB containing a Beta-lactam is added to the compounds at a final static concentration of 4 μg/mL. […] After inoculation the plates are incubated for 16-20 hours at 37° C. then the Minimal Inhibitory Concentration (MIC) of the test compound is determined visually.

Experiment [2] deals with E. cloacae expressing the Class C P99. As to the kind of experiment: broth microdilution MIC assay, E. cloacae P99. As to conditions: Enterobacter cloacae, read-out: MIC alone.
From the text: as §1
On the technique in general: Broth dilution looks for growth in wells or tubes with falling amounts of substance.

The test system of experiment [3] is S. aureus producing the Class A penicillinase PC-1. As to the kind of experiment: broth microdilution MIC assay, S. aureus PC-1. The conditions noted are these: Staphylococcus aureus; partner antibiotic alone, no inhibitor; S. aureus producing Class A penicillinase PC-1; CAMHB.
From the text: as §1

Experiment [4] has as its system K. pneumoniae expressing the class A carbapenemase KPC-2 and the class B carbapenemase VIM-4. As to the kind of experiment: broth microdilution MIC assay, K. pneumoniae KPC-2 and VIM-4. The conditions noted are these: Klebsiella pneumoniae; partner antibiotic alone, no inhibitor; K. pneumoniae expressing KPC-2 and VIM-4; CAMHB.
From the text: as §1

Experiment [5] has as its system P. aeruginosa expressing the Class B carbapenemase VIM-2. As to the kind of experiment: broth microdilution MIC assay, P. aeruginosa VIM-2. As to conditions: Pseudomonas aeruginosa, read-out: MIC alone.
From the text: as §1

The subject of experiment [6] is K. pneumoniae expressing the Class A carbapenemase KPC-3. As to the kind of experiment: broth microdilution MIC assay, K. pneumoniae KPC-3. The conditions noted are these: Klebsiella pneumoniae, read-out: MIC alone.
From the text: as §1

SMILES strings stand for the structures.

As for `CC(C)(O/N=C(\C(=O)N[C@@H]1C(=O)N2C(C(=O)[O-])=C(C[n+]3ccccc3)CS[C@H]12)c1csc(N)n1)C(=O)O` [Ceftazidime], the MIC in experiment [1] was above 128 µg/mL; in experiment [2], 128 µg/mL.
Take `CCN1CCN(C(=O)N[C@@H](C(=O)N[C@@H]2C(=O)N3[C@@H]2SC(C)(C)[C@@H]3C(=O)O)c2ccccc2)C(=O)C1=O` [Piperacillin]: in experiment [3], the MIC came out at 64 µg/mL.
As to `C[C@@H](O)[C@H]1C(=O)N2C(C(=O)O)=C(S[C@@H]3CN[C@H](C(=O)N(C)C)C3)[C@H](C)[C@H]12` [Meropenem], the MIC is 64 µg/mL in experiment [4], 16 µg/mL in experiment [5] and above 128 µg/mL in experiment [6].

The MIC is the lowest concentration that inhibits growth of the organism.
